Measured values published in PubChem BioAssay (NCI).
Values joined by “and” are separate entries in the source; they are usually repeats but may differ in a detail not shown here. Equal values may be shown once.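 Interpolation was linear, between the two tested concentrations surrounding the appropriate level; five concentrations were tested over 48 hours in 96-well plates. The concentration for 50% growth inhibition is given as GI50. TGI: concentration producing complete growth inhibition.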

How the values were obtained:
Assay in all cases: NCI anticancer screen, dose series, 48 h
HT29 colon = tested on: HT29 colon
SK-OV-3 ovarian = tested on: SK-OV-3 ovarian
HL-60(TB) leukemia = tested on: HL-60(TB) leukemia
LOX IMVI melanoma = tested on: LOX IMVI melanoma
MOLT-4 leukemia = tested on: MOLT-4 leukemia
SK-MEL-28 melanoma = tested on: SK-MEL-28 melanoma
SNB-78 CNS = tested on: SNB-78 CNS
OVCAR-3 ovarian = tested on: OVCAR-3 ovarian
DLD-1 colon = tested on: DLD-1 colon
KM20L2 colon = tested on: KM20L2 colon

SMILES: CC(=O)Nc1ccc(-c2nc3ccccc3s2)cc1
- TGI (HT29 colon): > 100 µM
- TGI (SK-OV-3 ovarian): 59.5 µM
- TGI (HL-60(TB) leukemia): > 100 µM
- TGI (LOX IMVI melanoma): > 100 µM
- TGI (MOLT-4 leukemia): > 100 µM
- TGI (SK-MEL-28 melanoma): > 100 µM

SMILES: COc1cc(/C=C/C(=O)O)ccc1C(=O)OCc1ccccc1
- TGI (HT29 colon): > 100 µM
- TGI (SNB-78 CNS): > 100 µM
- TGI (SK-OV-3 ovarian): > 100 µM
- TGI (HL-60(TB) leukemia): > 100 µM
- TGI (LOX IMVI melanoma): > 100 µM
- TGI (OVCAR-3 ovarian): > 100 µM
- TGI (DLD-1 colon): > 100 µM
- TGI (KM20L2 colon): > 100 µM
- TGI (MOLT-4 leukemia): > 100 µM
- TGI (SK-MEL-28 melanoma): > 100 µM

SMILES: COC(=O)CN(C)P(=O)(N1CC1)N1CC1
- TGI (HT29 colon): > 100 µM
- TGI (SNB-78 CNS): > 100 µM
- TGI (SK-OV-3 ovarian): > 100 µM
- TGI (HL-60(TB) leukemia): > 100 µM
- TGI (LOX IMVI melanoma): > 100 µM
- TGI (DLD-1 colon): > 100 µM
- TGI (KM20L2 colon): > 100 µM
- TGI (MOLT-4 leukemia): > 100 µM
- TGI (SK-MEL-28 melanoma): > 100 µM

SMILES: Cc1cccc(C(C)C)c1NC(=O)CC1Sc2ccccc2NC1=O (stereo not given)
- TGI (HT29 colon): > 100 µM
- TGI (SK-OV-3 ovarian): > 100 µM
- TGI (HL-60(TB) leukemia): > 100 µM
- TGI (LOX IMVI melanoma): > 100 µM
- TGI (OVCAR-3 ovarian): > 100 µM
- TGI (DLD-1 colon): > 100 µM
- TGI (KM20L2 colon): > 100 µM
- TGI (MOLT-4 leukemia): > 100 µM
- TGI (SK-MEL-28 melanoma): > 100 µM

SMILES: CN1CCN(CN2C(=O)C3C4C=CC(C3C2=O)C2C(=O)N(CN3CCN(C)CC3)C(=O)C42)CC1 (stereo not given)
- TGI (HT29 colon): 49.3 µM
- TGI (SK-OV-3 ovarian): > 100 µM
- TGI (HL-60(TB) leukemia): 61.6 µM
- TGI (LOX IMVI melanoma): > 63 µM
- TGI (OVCAR-3 ovarian): > 100 µM
- TGI (MOLT-4 leukemia): 97.1 µM
- TGI (SK-MEL-28 melanoma): > 58 µM

SMILES: CCCC(O)C(NC(=O)CCl)C(=O)O (stereo not given)
- TGI (HT29 colon): > 100 µM
- TGI (SNB-78 CNS): > 100 µM
- TGI (SK-OV-3 ovarian): > 100 µM
- TGI (HL-60(TB) leukemia): > 100 µM
- TGI (LOX IMVI melanoma): > 100 µM
- TGI (OVCAR-3 ovarian): > 100 µM
- TGI (DLD-1 colon): > 100 µM
- TGI (KM20L2 colon): > 100 µM
- TGI (MOLT-4 leukemia): > 100 µM
- TGI (SK-MEL-28 melanoma): > 100 µM

SMILES: COc1cc2c3c(c4cc(OC)c(OC)cc4c2cc1OC)C(=O)C1CCC(=O)N1C3 (stereo not given)
- TGI (SK-OV-3 ovarian): 61.1 µM
- TGI (HL-60(TB) leukemia): > 100 µM
- TGI (LOX IMVI melanoma): > 100 µM
- TGI (OVCAR-3 ovarian): > 100 µM
- TGI (MOLT-4 leukemia): 37.5 µM
- TGI (SK-MEL-28 melanoma): > 100 µM

SMILES: O=C(CC(=O)c1ccccc1)CC(O)(c1ccccc1)c1ccccc1
- TGI (HT29 colon): 23.7 µM
- TGI (SNB-78 CNS): 81 µM
- TGI (SK-OV-3 ovarian): 76 µM
- TGI (HL-60(TB) leukemia): 6.54 µM
- TGI (OVCAR-3 ovarian): 17.3 µM
- TGI (DLD-1 colon): 26.6 µM
- TGI (KM20L2 colon): 19.5 µM
- TGI (MOLT-4 leukemia): 42.8 µM
- TGI (SK-MEL-28 melanoma): 31.9 µM

SMILES: CC12CCC3C(CCC4=CC(O)CCC43C=O)C1(O)CCC2c1ccc(=O)oc1 (stereo not given)
- GI50 (HT29 colon): 0.0667 µM
- GI50 (SNB-78 CNS): 0.05 µM
- TGI (SNB-78 CNS): 0.202 µM and 0.0635 µM
- GI50 (SK-OV-3 ovarian): 0.05 µM
- TGI (SK-OV-3 ovarian): 0.0404 µM and 0.0713 µM
- GI50 (HL-60(TB) leukemia): 0.05 µM
- GI50 (LOX IMVI melanoma): 0.05 µM
- TGI (OVCAR-3 ovarian): 0.0153 µM
- GI50 (DLD-1 colon): 0.00769 µM
- TGI (DLD-1 colon): 0.0571 µM
- GI50 (KM20L2 colon): 0.05 µM
- TGI (KM20L2 colon): 0.0365 µM and 0.0562 µM
- GI50 (MOLT-4 leukemia): 0.0129 µM
- TGI (MOLT-4 leukemia): 0.0401 µM
- GI50 (SK-MEL-28 melanoma): 0.00766 µM
- TGI (SK-MEL-28 melanoma): 0.14 µM and 0.104 µM

SMILES: CC(=O)OC1(C#N)CC2OC1C1C2N=NN1C(=O)OC(C)(C)C (stereo not given)
- TGI (HT29 colon): > 100 µM
- TGI (SNB-78 CNS): 73.2 µM
- TGI (LOX IMVI melanoma): 69.4 µM
- TGI (OVCAR-3 ovarian): > 100 µM
- TGI (DLD-1 colon): > 100 µM
- TGI (KM20L2 colon): > 100 µM
- TGI (MOLT-4 leukemia): > 100 µM
- TGI (SK-MEL-28 melanoma): 81.9 µM
